Source: patent US5912231A, “Substitution analogues of magainin peptides” (priority 1994, dated 1999)
Like-named read-outs stand apart in the source and are kept apart here. Residues, ends and D or L forms follow the SMILES beside them.

How the values were obtained:
Format in all cases: cell-based
Escherichia coli = conditions: 6 h
Protocol: (§1) Antimicrobial assays (for Examples 3 to 27) were carried out in 96-well tissue culture plates. Each well was incubated with a given microorganism (Escherichia coli, Staphylococcus epidermidis, Staphylococcus aureus, or Pseudomonas aeruginosa) suspended in LB medium (Examples 3-17), or TSB medium (Examples 18-27). Upon the addition of Magainin I or its substitution analogues, (dissolved in 1×PBS, pH 7.0) each well contained a final cell density of 1.0×10^6 colony forming units (CFU)/ml. The final peptide concentrations used were 100 μg/ml., 75.0 μg/ml, 50.0 μg/ml, 25 μg/ml, 12.5 μg/ml, 10 μg/ml, 5μg/ml, 2.5 μg/ml, and 1.25 μg/ml.
(§2) Addition of peptides to the wells was defined as time zero. At six hours, the plates were placed in a Titertek Multiskan apparatus and the O.D.620 determined. The plates as well as the initial innoculum were incubated at 37° C.
(§3) Five wells per plate contained media alone, while five others contained medium plus cells. These controls were used to eliminate the possibility of media contamination while providing a measure of uninhibited growth of the microorganisms.
(§4) The degree of peptide activity was determined by comparing the substitution analogues with uninhibited growth of the control cells over a six-hour period.

[1] = system: Staphylococcus epidermidis; conditions: 6 h
Protocol: as §1, §2, §3, §4

Pseudomonas aeruginosa = conditions: TSB medium, 6 h
Protocol: as §1, §2, §3, §4

Staphylococcus aureus = conditions: at 50 μg/ml peptide; LB medium; 6 h
Protocol: as §1, §2, §3, §4

[2] = at 10 μg/ml peptide, TSB medium
[3] = at 25 μg/ml peptide, TSB medium

CC[C@H](C)[C@H](NC(=O)CN)C(=O)NCC(=O)N[C@@H](CCCCN)C(=O)N[C@@H](CCCCN)C(=O)N[C@@H](CC(C)C)C(=O)N[C@@H](Cc1c[nH]cn1)C(=O)N[C@@H](CCCCN)C(=O)N[C@@H](CCCCN)C(=O)NCC(=O)N[C@@H](CCCCN)C(=O)N[C@@H](Cc1ccccc1)C(=O)NCC(=O)N[C@@H](CCCCN)C(=O)N[C@@H](Cc1ccccc1)C(=O)N[C@@H](CCCCN)C(=O)NCC(=O)N[C@@H](C)C(=O)N[C@H](C(=O)N[C@@H](CC(C)C)C(=O)N[C@@H](CCCCN)C(=O)N[C@@H](C)C(=O)O)[C@@H](C)CC [Example 8] (H-GIGKKLHKKGKFGKFKGAILKA-OH)
100%: % effective growth inhibition of E. coli (Escherichia coli; at 5 μg/ml peptide, LB medium) | % effective growth inhibition of E. coli (Escherichia coli; at 5 μg/ml peptide, TSB medium) | % effective growth inhibition of E. coli (Escherichia coli; [2]) | % effective growth inhibition of E. coli (Escherichia coli; at 25 μg/ml peptide, LB medium) | % effective growth inhibition of E. coli (Escherichia coli; [3]) | % effective growth inhibition of E. coli (Escherichia coli; at 75 μg/ml peptide, LB medium) | % effective growth inhibition of E. coli (Escherichia coli; at 100 μg/ml peptide, LB medium) | % effective growth inhibition of S. epidermidis ([1]; at 5 μg/ml peptide, TSB medium) | % effective growth inhibition of S. epidermidis [1, 2] | % effective growth inhibition of S. epidermidis [1, 3] | % effective growth inhibition of S. epidermidis ([1]; at 50 μg/ml peptide, LB medium) | % effective growth inhibition of S. epidermidis ([1]; at 75 μg/ml peptide, LB medium) | % effective growth inhibition of P. aeruginosa (Pseudomonas aeruginosa; at 5 μg/ml peptide) | % effective growth inhibition of P. aeruginosa (Pseudomonas aeruginosa; at 10 μg/ml peptide) | % effective growth inhibition of P. aeruginosa (Pseudomonas aeruginosa; at 25 μg/ml peptide)

GIGKFILHAAGKFGKAFVGIMKS (GIGKFLHAAGKFGKAFVGIMKS) [Magainin I, residue 19 deleted, residue 8 alanine]
100%: % effective growth inhibition of E. coli (Escherichia coli; at 2.5 μg/ml peptide, LB medium) | % effective growth inhibition of S. aureus (Staphylococcus aureus) | % effective growth inhibition of S. epidermidis ([1]; at 25 μg/ml peptide, LB medium)
